# Where two headings read alike, the source gives them in different places.
# What was measured:
# Tetranychus urticae = test: Tetranychus test, OP-resistant (TETRUR spray treatment); type: in vivo; details: bean leaf discs, after 6 days
# Description: Tetranychus Test, OP-Resistant (TETRUR Spray Treatment)
# Solvent: 78.0 parts by weight of acetone • • 1.5 parts by weight of dimethylformamide
# Emulgator: 0.5 part by weight of alkylaryl polyglycol ether
# To produce an appropriate active ingredient formulation, 1 part by weight of active ingredient is mixed with the stated amounts of solvent and emulsifier, and the concentrate is diluted with emulsifier-containing water to the desired concentration.
# Discs of bean leaves (Phaseolus vulgaris) infested by all stages of the red spider mite (Tetranychus urticae) are sprayed with an active ingredient formulation of the desired concentration.
# After 6 days, the efficacy in % is determined. 100% means that all of the spider mites have been killed; 0% means that none of the spider mites have been killed.
# logP (HPLC-MS) = type: physicochemical
# Spodoptera frugiperda = Spodoptera frugiperda test (SPODFR spray treatment); type: in vivo; details: maize leaf discs, after 7 days
# Description: Spodoptera frugiperda Test (SPODFR Spray Treatment) Solvent: 78.0 parts by weight of acetone • • 1.5 parts by weight of dimethylformamide To produce an appropriate active ingredient formulation, 1 part by weight of active ingredient is mixed with the stated amounts of solvent and emulsifier, and the concentrate is diluted with emulsifier-containing water to the desired concentration. Leaf discs of maize (Zea mays) are sprayed with an active ingredient formulation of the desired concentration and, after drying, populated with caterpillars of the armyworm (Spodoptera frugiperda). After 7 days, the efficacy in % is determined 100% means that all of the caterpillars have been killed; 0% means that none of the caterpillars have been killed.
# Phaedon cochleariae = test: Phaedon test (PHAECO spray treatment); type: in vivo; details: Chinese cabbage leaf discs, after 7 days
# Description: Phaedon Test ([…] Spray Treatment) Solvent: 78.0 parts by weight of acetone • • 1.5 parts by weight of dimethylformamide Emulsifier: 0.5 part by weight of alkylaryl polyglycol ether To produce an appropriate active ingredient formulation, 1 part by weight of active ingredient is mixed with the stated amounts of solvent and emulsifier, and the concentrate is diluted with emulsifier-containing water to the desired concentration. Leaf discs of Chinese cabbage (Brassica pekinensis) are sprayed with an active ingredient formulation of the desired concentration and, after drying, populated with larvae of the mustard beetle (Phaedon cochleariae). After 7 days, the efficacy in % is determined. 100% means that all of the beetle larvae have been killed; 0% means that none of the beetle larvae have been killed.
# [1] = HPLC, reversed-phase column (C18), acidic range pH 2.7, acetonitrile (0.1% formic acid)/water gradient, 43° C., calibration with unbranched alkan-2-ones
# [2] = HPLC, reversed-phase column (C18), 43° C., acidic range pH 2.7, EEC directive 79/831 Annex V.A8, two values = both regioisomers (G = N)
Compound,efficacy in % (Tetranychus urticae; application rate 100 g/ha),log p (logP (HPLC-MS); [1]),efficacy in % (Spodoptera frugiperda; application rate 100 g/ha),efficacy in % (Phaedon cochleariae; application rate 100 g/ha),log p (logP (HPLC-MS); [2]),also measured
N#CC1(NC(=O)c2cc3cc(C(=O)NC(c4cccc(C(F)(F)F)c4)C(F)(F)F)n(CC4CC4)c3cc2Cl)CC1 (centres unmarked) [Compound 272],100%,4.03,100%,100%,–,–
CCn1c(C(=O)NC(c2cc(F)cc(Cl)c2)C(F)(F)F)cc2cc(C(=O)NC3CC3)c(C)cc21 (centres unmarked) [Compound 298],100%,–,100%,100%,3.77,–
C#CCC(C#N)NC(=O)c1cc2cc(C(=O)NC(c3cccc(C(F)(F)F)c3)C(F)(F)F)n(CC)c2cc1Cl (centres unmarked) [Compound 268],100%,3.91,100%,100%,–,–
CCn1c(C(=O)NC(c2ccc3c(c2)OC(F)(F)O3)C(F)(F)F)cc2cc(C(=O)NC3(C#N)CC3)c(C)cc21 (centres unmarked) [Compound 308],90%,–,100%,100%,3.80,–
CCn1c(C(=O)NC(c2cc(F)cc(Cl)c2)C(F)(F)F)cc2cc(C(=O)NC3(C#N)CC3)c(C)cc21 (centres unmarked) [Compound 293],100%,–,100%,100%,3.85,–
CCOCn1c(C(=O)NC(c2cccc(C(F)(F)F)c2)C(F)(F)F)cc2cc(C(=O)NC3(C#N)CC3)c(Cl)cc21 (centres unmarked) [Compound 287],100%,–,100%,100%,3.70,–
"N#CC1(NC(=O)c2cc3cc(C(=O)NC(c4cccc(C(F)(F)F)c4)C(F)(F)F)n(C4CC4)c3cc2Cl)CC1 (centres unmarked) [Compound 302, 6-chloro-N^5-(1-cyanocyclopropyl)-1-cyclopropyl-N^2-{2,2,2-trifluoro-1-[3-(trifluoromethyl)phenyl]ethyl}-1H-indole-2,5-dicarboxamide]",100%,–,100%,–,–,"chromatographic logP (logP (HPLC-MS); HPLC, reversed-phase column (C18), 43° C., acidic range pH 2.7, EEC directive 79/831 Annex V.A8, two values = both regioisomers (G = N), read-out: log p): 3.6; chromatographic logP (logP (HPLC-MS); HPLC-MS): 3.59; pest or weed control at 100 g/ha (Phaedon cochleariae; Phaedon cochleariae, foliar, 168 h, application rate 100 g/ha, read-out: efficacy in %): 100%"
CCn1c(C(=O)NC(c2cccc(Cl)c2)C(F)(F)F)cc2cc(C(=O)NC3CC3)c(C)cc21 (centres unmarked) [Compound 184],100%,3.57,100%,100%,–,–
C#CCn1c(C(=O)NC(c2cc(Cl)cc(Cl)c2)C(F)(F)F)cc2cc(C(=O)NC3CC3)c(Cl)cc21 (centres unmarked) [Compound 65],100%,3.90,100%,–,–,–
C#CCn1c(C(=O)NC(c2cccc(Cl)c2)C(F)(F)F)cc2cc(C(=O)NC3(C#N)CC3)c(Cl)cc21 (centres unmarked) [Compound 58],100%,3.42,100%,100%,–,–
CCn1c(C(=O)NC(c2cc(Cl)cc(Cl)c2)C(F)(F)F)nc2cc(C(=O)NC3CC3)c(Cl)cc21 (centres unmarked) [Compound 317],–,–,–,–,–,efficacy in % (Tetranychus urticae; application rate 500 g/ha): 100%; efficacy in % (Spodoptera frugiperda; application rate 500 g/ha): 100%; efficacy in % (Phaedon cochleariae; application rate 500 g/ha): 100%
C#CCn1c(C(=O)NC(c2cccc(Br)c2)C(F)(F)F)cc2cc(C(=O)NC3CC3)c(Cl)cc21 (centres unmarked) [Compound 59],100%,3.44,100%,–,–,–
N#CCn1c(C(=O)NC(c2cccc(C(F)(F)F)c2)C(F)(F)F)cc2cc(C(=O)NC3(C#N)CC3)c(Cl)cc21 (centres unmarked) [Compound 294],–,–,–,100%,3.30,efficacy in % (Tetranychus urticae; application rate 500 g/ha): 100%
Cn1c(C(=O)NC(c2ccc(F)c(Br)c2)C(F)(F)F)cc2cc(C(=O)NC3CC3)c(Cl)cc21 (centres unmarked) [Compound 51],100%,3.61,100%,100%,–,–
Cn1c(C(=O)NC(c2cccc(Br)c2)C(F)(F)F)cc2cc(C(=O)NC3CC3)c(Cl)cc21 (centres unmarked) [Compound 47],90%,3.42,–,100%,–,–

# Source: patent publication US9107411B2, “Indolecarboxamides and benzimidazolecarboxamides as insecticides and acaricides” (BAYER INTELLECTUAL PROPERTY GMBH, priority 2011, dated 2015)
